For 24 compounds, GI50 and IC50 results are on record in publication PMC9506414, “Novel 2,6,9-Trisubstituted Purines as Potent CDK Inhibitors Alleviating Trastuzumab-Resistance of HER2-Positive Breast Cancers” (Pharmaceuticals, 2022).

In test [1] the test system is SK-Br3 cells. As to the kind of experiment: Antiproliferation assay (Cell-titer Glo, 72 h). Conditions: Homo sapiens, SK-BR-3; 72 h; means and standard deviations from three independent assays; read-out: SK-Br3 (GI50/μM). The class given is cell-based. The method, then: (§1) Breast-cancer cell lines (SK-Br3, HCC-1954) were purchased from Korea Cell Line Bank (Seoul, Korea) and were cultured in RPMI medium supplemented with 10% FBS and penicillin/streptomycin (Welgene, Seoul, Korea). All cell lines were maintained at 37 °C in a cell incubator in the presence of 5% CO2.
(§2) Breast-cancer cells in culture media (100 μL volume/well, 5000 SK-Br3 cells/well, 1000 HCC-1954 cells/well) were seeded in tissue culture-treated 96-well plates, and incubated at a cell incubator for 24 h. Serially diluted compounds (3-fold, 10 point from 10 mM, duplicated) were pre-plated and 500 nL of compound solutions were pin-transferred to the cells in the assay plates using pintool system (JANUS liquid handler, PerkinElmer, Waltham, MA, USA) and incubated at a cell incubator for 72 h. Cell-titer Glo^TM reagent (50 μL, Promega Corp., Madison, WI, USA) was added to each well, and the luminescence signal was read using an Envision^TM plate reader (PerkinElmer, Waltham, MA, USA). The titration curve fitting and IC50 values were generated using Prism 7.0 s/w (GraphPad, San Diego, CA, USA).

The test system of test [2] is HCC1954 cells. Kind of test: Antiproliferation assay (Cell-titer Glo, 72 h). Conditions: Homo sapiens, 72 h, means and standard deviations from three independent assays, read-out: HCC1954 (GI50/μM). The class given is cell-based. The method, then: as §1, §2
In test [3] the target is CDK12/CyclinK (Homo sapiens, UniProt Q9NYV4). Kind of test: In vitro CDK12/cyclinK kinase assay. The format is biochemical. The arrangement: purchased Reaction Biology Corp. (CRO that ran the assay). The method, then: In vitro CDK12/cyclinK assays for all compounds and in vitro kinome-wide inhibition profiling of 30d at 10 μM were performed by a CRO company (Reaction Biology Corp., San Diego, CA, USA).
Chain of CDK12/CyclinK (Q9NYV4 whole entry): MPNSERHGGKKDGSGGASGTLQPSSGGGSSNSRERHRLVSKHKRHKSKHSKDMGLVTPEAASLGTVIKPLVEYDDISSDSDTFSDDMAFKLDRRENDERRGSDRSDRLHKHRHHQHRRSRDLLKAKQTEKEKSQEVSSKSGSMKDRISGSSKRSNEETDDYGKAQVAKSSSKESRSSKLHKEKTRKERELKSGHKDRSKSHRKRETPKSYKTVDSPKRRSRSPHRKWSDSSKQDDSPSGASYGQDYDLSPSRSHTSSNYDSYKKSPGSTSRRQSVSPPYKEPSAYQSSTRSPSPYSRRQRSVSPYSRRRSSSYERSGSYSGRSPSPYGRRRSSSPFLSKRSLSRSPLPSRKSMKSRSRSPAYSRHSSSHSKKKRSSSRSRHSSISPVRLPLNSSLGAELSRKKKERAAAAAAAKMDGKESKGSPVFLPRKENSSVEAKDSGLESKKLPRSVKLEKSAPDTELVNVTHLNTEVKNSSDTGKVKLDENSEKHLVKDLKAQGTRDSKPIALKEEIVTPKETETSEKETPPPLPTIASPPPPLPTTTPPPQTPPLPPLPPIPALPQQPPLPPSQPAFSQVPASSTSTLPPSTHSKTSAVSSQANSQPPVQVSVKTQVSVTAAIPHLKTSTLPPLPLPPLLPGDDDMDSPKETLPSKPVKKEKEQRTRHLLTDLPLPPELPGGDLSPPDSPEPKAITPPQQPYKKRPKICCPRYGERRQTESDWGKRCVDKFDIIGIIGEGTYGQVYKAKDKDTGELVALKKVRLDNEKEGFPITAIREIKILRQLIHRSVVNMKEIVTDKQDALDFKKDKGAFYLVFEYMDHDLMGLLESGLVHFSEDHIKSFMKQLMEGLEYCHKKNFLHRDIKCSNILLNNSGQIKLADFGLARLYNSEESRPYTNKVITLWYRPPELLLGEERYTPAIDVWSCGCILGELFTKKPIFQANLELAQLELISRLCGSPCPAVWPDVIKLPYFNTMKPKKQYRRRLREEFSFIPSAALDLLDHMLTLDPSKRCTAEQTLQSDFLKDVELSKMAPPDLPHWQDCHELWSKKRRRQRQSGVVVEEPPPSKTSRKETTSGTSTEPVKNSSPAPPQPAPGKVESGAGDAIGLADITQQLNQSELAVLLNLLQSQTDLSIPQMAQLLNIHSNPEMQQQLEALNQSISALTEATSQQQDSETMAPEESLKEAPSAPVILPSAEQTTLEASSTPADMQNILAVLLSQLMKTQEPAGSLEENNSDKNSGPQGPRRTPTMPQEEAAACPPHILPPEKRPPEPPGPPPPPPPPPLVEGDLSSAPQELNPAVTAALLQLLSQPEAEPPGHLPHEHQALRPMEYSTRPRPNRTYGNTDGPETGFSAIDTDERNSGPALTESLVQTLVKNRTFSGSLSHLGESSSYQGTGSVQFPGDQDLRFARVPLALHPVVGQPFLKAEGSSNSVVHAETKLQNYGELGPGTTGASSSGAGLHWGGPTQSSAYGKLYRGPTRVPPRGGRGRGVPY
Chain of CDK12/CyclinK (O75909 whole entry partner): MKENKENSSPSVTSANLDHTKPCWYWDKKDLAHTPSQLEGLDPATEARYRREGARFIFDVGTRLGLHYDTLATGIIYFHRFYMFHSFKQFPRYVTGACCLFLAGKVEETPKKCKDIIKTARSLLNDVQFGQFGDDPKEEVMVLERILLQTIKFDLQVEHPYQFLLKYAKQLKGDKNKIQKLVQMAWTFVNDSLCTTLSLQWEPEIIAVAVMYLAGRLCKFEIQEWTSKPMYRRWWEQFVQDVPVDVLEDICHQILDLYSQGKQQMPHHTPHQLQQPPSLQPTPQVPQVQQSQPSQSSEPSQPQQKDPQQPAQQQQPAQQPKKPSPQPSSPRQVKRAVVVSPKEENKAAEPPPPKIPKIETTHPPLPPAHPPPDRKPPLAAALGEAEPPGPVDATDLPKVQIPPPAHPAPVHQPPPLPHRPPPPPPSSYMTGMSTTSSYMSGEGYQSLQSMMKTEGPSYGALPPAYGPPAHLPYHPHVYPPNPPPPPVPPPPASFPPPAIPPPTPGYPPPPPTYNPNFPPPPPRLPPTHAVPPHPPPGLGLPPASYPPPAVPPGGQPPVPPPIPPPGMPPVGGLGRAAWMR

Where [4] appears, read: Tables 1-4, read-out: CDK12/CyclinK (IC50/μM).

Structures are written as SMILES. Where two headings read alike, the source gives them in different places. Where only a bound is given, the exact number is not on record here.

For the compound `CC(C)n1cnc2c(NCc3ccc(-c4cccnc4)nc3)nc(-c3cnc4ccccc4c3)nc21` [Compound 18g, N-([2,3′-Bipyridin]-5-ylmethyl)-9-isopropyl-2-(quinolin-3-yl)-9H-purin-6-amine], the GI50 in test [1] is 3.71 ± 0.557 µM; in test [2], 4.23 ± 0.214 µM. Besides, the IC50 in test [3] (setting [4]) was determined as 0.486 µM.

Consider `Cc1ccc(-c2nc(NCc3ccc(-c4cccnc4)nc3)c3ncn(C(C)C)c3n2)cn1` [Compound 18h, N-([2,3′-Bipyridin]-5-ylmethyl)-9-isopropyl-2-(6-methylpyridin-3-yl)-9H-purin-6-amine], for which the GI50 in test [1] turned out to be 1.27 ± 0.33 µM; in test [2] it was 0.942 ± 0.125 µM. Besides, the IC50 in test [3] (setting [4]) was 0.09 µM.

As to `CC(C)n1cnc2c(NCc3ccc(-c4cccnc4)nc3)nc(-c3ccc(N)nc3)nc21` [Compound 18i, N-([2,3′-Bipyridin]-5-ylmethyl)-2-(6-aminopyridin-3-yl)-9-isopropyl-9H-purin-6-amine], the GI50 in test [1] is 0.376 ± 0.067 µM; in test [2], 0.278 ± 0.007 µM. The IC50 in test [3] (setting [4]) was 0.065 µM; in test [3] (read-out: CDK12/cyclinK IC50), below 0.1 µM.

`CC(C)n1cnc2c(NCc3ccc(-c4cccnc4)nc3)nc(-c3ccnc(N)c3)nc21` [Compound 18j, N-([2,3′-Bipyridin]-5-ylmethyl)-2-(2-aminopyridin-4-yl)-9-isopropyl-9H-purin-6-amine]: the GI50 in test [1] was 0.71 ± 0.024 µM; in test [2] it was 0.354 ± 0.06 µM. Also, the figures for the IC50 in test [3] (setting [4]) and in test [3] (read-out: CDK12/cyclinK IC50) were 0.094 µM and below 0.1 µM, respectively.

In the case of `CC(C)n1cnc2c(NCc3ccc(-c4cccnc4)nc3)nc(-c3cncnc3)nc21` [Compound 18k, N-([2,3′-Bipyridin]-5-ylmethyl)-9-isopropyl-2-(pyrimidin-5-yl)-9H-purin-6-amine], the values for the GI50 in test [1] and in test [2] were 0.318 ± 0.149 µM and 0.31 ± 0.041 µM, respectively. The results for the IC50 in test [3] (setting [4]) and in test [3] (read-out: CDK12/cyclinK IC50) were 0.051 µM and below 0.1 µM, respectively.

For `CC(C)n1cnc2c(NCc3ccc(-c4cccnc4)nc3)nc(-c3cnc(N)nc3)nc21` [Compound 18l, N-([2,3′-Bipyridin]-5-ylmethyl)-2-(2-aminopyrimidin-5-yl)-9-isopropyl-9H-purin-6-amine], the GI50 in test [1] is 0.242 ± 0.042 µM; in test [2], 0.162 ± 0.011 µM. Further, the IC50 was 0.087 µM in test [3] (setting [4]) and below 0.1 µM in test [3] (read-out: CDK12/cyclinK IC50).

Consider `CC(C)n1cnc2c(NCc3ccc(-c4cccnc4)nc3)nc(-c3ccn[nH]3)nc21` [Compound 18m, N-([2,3′-Bipyridin]-5-ylmethyl)-9-isopropyl-2-(1H-pyrazol-5-yl)-9H-purin-6-amine], for which the results for the GI50 in test [1] and in test [2] were 1.72 ± 0.336 µM and 1.13 ± 0.05 µM, respectively. The IC50 in test [3] (setting [4]) was 0.501 µM.

In the case of `CC(C)n1cnc2c(NCc3ccc(-c4cccnc4)nc3)nc(-c3cn[nH]c3)nc21` [Compound 18n, N-([2,3′-Bipyridin]-5-ylmethyl)-9-isopropyl-2-(1H-pyrazol-4-yl)-9H-purin-6-amine], the GI50 in test [1] came out at 1.99 ± 0.12 µM; in test [2], 1.17 ± 0.027 µM. Moreover, the IC50 in test [3] (setting [4]) was determined as 1.43 µM.

Turning to `CC(C)n1cnc2c(NCc3ccc(-c4cccnc4)nc3)nc(-c3ccccc3N)nc21` [Compound 19a, N-([2,3′-Bipyridin]-5-ylmethyl)-2-(2-aminophenyl)-9-isopropyl-9H-purin-6-amine], the GI50 in test [1] came to 2.61 ± 0.899 µM; in test [2], 2.63 ± 0.448 µM. In addition, the IC50 in test [3] (setting [4]) is 0.619 µM.

As for `CC(C)n1cnc2c(NCc3ccc(-c4cccnc4)nc3)nc(-c3cccc(N)c3)nc21` [Compound 19b, N-([2,3′-Bipyridin]-5-ylmethyl)-2-(3-aminophenyl)-9-isopropyl-9H-purin-6-amine], the GI50 came to 0.614 ± 0.055 µM in test [1] and 0.341 ± 0.059 µM in test [2]. Also, the IC50 in test [3] (setting [4]) was determined as 0.17 µM.

For `CC(C)n1cnc2c(NCc3ccc(-c4cccnc4)nc3)nc(-c3ccc(N)cc3)nc21` [Compound 19c, N-([2,3′-Bipyridin]-5-ylmethyl)-2-(4-aminophenyl)-9-isopropyl-9H-purin-6-amine], the GI50 in test [1] was determined as 0.795 ± 0.063 µM; in test [2], 0.497 ± 0.088 µM. In test [3] (setting [4]), the IC50 stood at 0.15 µM.

Consider `CC(C)n1cnc2c(NCc3ccc(-c4cccnc4)nc3)nc(-c3ccccc3NCCO)nc21` [Compound 20a, 2-((2-(6-(([2,3′-Bipyridin]-5-ylmethyl)amino)-9-isopropyl-9H-purin-2-yl)phenyl)amino)ethan-1-ol], for which the GI50 in test [1] turned out to be 2.3 ± 0.318 µM; in test [2], 1.56 ± 0.116 µM. Further, the IC50 in test [3] (setting [4]) is 0.799 µM.

With `CC(C)n1cnc2c(NCc3ccc(-c4cccnc4)nc3)nc(-c3ccccc3NCCCO)nc21` [Compound 20b, 3-((2-(6-(([2,3′-Bipyridin]-5-ylmethyl)amino)-9-isopropyl-9H-purin-2-yl)phenyl)amino)propan-1-ol], the GI50 in test [1] worked out at 11.2 ± 1.12 µM; in test [2] it was 6.05 ± 0.351 µM. For the same compound, the IC50 in test [3] (setting [4]) turned out to be 3.01 µM.

On to `CC(C)n1cnc2c(NCc3ccc(-c4cccnc4)nc3)nc(-c3cccc(NCCCO)c3)nc21` [Compound 20c, 3-((3-(6-(([2,3′-Bipyridin]-5-ylmethyl)amino)-9-isopropyl-9H-purin-2-yl)phenyl)amino)propan-1-ol], for which the GI50 in test [1] came out at 0.732 ± 0.177 µM; in test [2], 0.502 ± 0.025 µM. Moreover, the IC50 in test [3] (setting [4]) was determined as 0.257 µM.

As to `CC(C)n1cnc2c(NCc3ccc(-c4cccnc4)nc3)nc(-c3ccc(NCCCO)cc3)nc21` [Compound 20d, 3-((4-(6-(([2,3′-Bipyridin]-5-ylmethyl)amino)-9-isopropyl-9H-purin-2-yl)phenyl)amino)propan-1-ol], the GI50 in test [1] was determined as 1.09 ± 0.127 µM; in test [2], 0.907 ± 0.068 µM. The IC50 in test [3] (setting [4]) is 0.499 µM.

In the case of `CC(C)n1cnc2c(NCc3ccc(-c4cccnc4)nc3)nc(-c3ccc(F)nc3)nc21` [Compound 21a, N-([2,3′-Bipyridin]-5-ylmethyl)-2-(6-fluoropyridin-3-yl)-9-isopropyl-9H-purin-6-amine], the GI50 was 1.7 ± 0.165 µM in test [1] and 1.33 ± 0.393 µM in test [2]. Further, in test [3] (setting [4]), the IC50 turned out to be 0.147 µM.

On to `CC(C)n1cnc2c(NCc3ccc(-c4cccnc4)nc3)nc(-c3ccnc(F)c3)nc21` [Compound 21b, N-([2,3′-Bipyridin]-5-ylmethyl)-2-(2-fluoropyridin-4-yl)-9-isopropyl-9H-purin-6-amine], for which the figures for the GI50 in test [1] and in test [2] were 1.68 ± 0.267 µM and 1.27 ± 0.021 µM, respectively. In addition, the IC50 in test [3] (setting [4]) came to 0.164 µM.

With `CC(C)n1cnc2c(NCc3ccc(-c4cccnc4)nc3)nc(-c3ccc(NCCO)nc3)nc21` [Compound 22a, 2-((5-(6-(([2,3′-Bipyridin]-5-ylmethyl)amino)-9-isopropyl-9H-purin-2-yl)pyridin-2-yl)amino)ethan-1-ol], the GI50 was determined as 0.262 ± 0.021 µM in test [1] and 0.174 ± 0.019 µM in test [2]. For the same compound, the IC50 in test [3] (setting [4]) came out at 0.053 µM.

Turning to `CC(C)n1cnc2c(NCc3ccc(-c4cccnc4)nc3)nc(-c3ccc(NCCCO)nc3)nc21` [Compound 22b, 3-((5-(6-(([2,3′-Bipyridin]-5-ylmethyl)amino)-9-isopropyl-9H-purin-2-yl)pyridin-2-yl)amino)propan-1-ol], the GI50 is 1.18 ± 0.118 µM in test [1] and 0.977 ± 0.07 µM in test [2]. Also, the IC50 in test [3] (setting [4]) is 0.304 µM.

For the compound `CC(C)n1cnc2c(NCc3ccc(-c4cccnc4)nc3)nc(-c3ccnc(NCCO)c3)nc21` [Compound 22c, 2-((4-(6-(([2,3′-Bipyridin]-5-ylmethyl)amino)-9-isopropyl-9H-purin-2-yl)pyridin-2-yl)amino)ethan-1-ol], the figures for the GI50 in test [1] and in test [2] were 0.473 ± 0.087 µM and 0.433 ± 0.052 µM, respectively. Besides, the IC50 in test [3] (setting [4]) stood at 0.086 µM.

Consider `CC(C)n1cnc2c(NCc3ccc(-c4cccnc4)nc3)nc(-c3ccnc(NCCCO)c3)nc21` [Compound 22d, 3-((4-(6-(([2,3′-Bipyridin]-5-ylmethyl)amino)-9-isopropyl-9H-purin-2-yl)pyridin-2-yl)amino)propan-1-ol], for which the GI50 turned out to be 0.48 ± 0.026 µM in test [1] and 0.387 ± 0.037 µM in test [2]. In addition, in test [3] (setting [4]), the IC50 came out at 0.113 µM.

Consider `Cc1cc(N)n(-c2nc(NCc3ccc(-c4cccnc4)nc3)c3ncn(C(C)C)c3n2)n1` [Compound 24, N-([2,3′-Bipyridin]-5-ylmethyl)-2-(5-amino-3-methyl-1H-pyrazol-1-yl)-9-isopropyl-9H-purin-6-amine], for which the GI50 in test [1] worked out at 5.16 ± 0.365 µM; in test [2], 3.44 ± 0.177 µM. The IC50 in test [3] (setting [4]) came to 2.35 µM.

Take `CC(C)n1cnc2c(NCc3ccc(-c4cccnc4)nc3)nc(-n3cc(CO)nn3)nc21` [Compound 26a, (1-(6-(([2,3′-Bipyridin]-5-ylmethyl)amino)-9-isopropyl-9H-purin-2-yl)-1H-1,2,3-triazol-4-yl)methanol]: the GI50 was 13.3 ± 3.15 µM in test [1] and 9.97 ± 1.86 µM in test [2]. Moreover, in test [3] (setting [4]), the IC50 turned out to be 2.05 µM.

On to `CC(C)n1cnc2c(NCc3ccc(-c4cccnc4)nc3)nc(-n3cc(CCO)nn3)nc21` [Compound 26b, 2-(1-(6-(([2,3′-Bipyridin]-5-ylmethyl)amino)-9-isopropyl-9H-purin-2-yl)-1H-1,2,3-triazol-4-yl)ethan-1-ol], for which the GI50 in test [1] is 8.3 ± 0.882 µM; in test [2], 6.16 ± 0.429 µM. In test [3] (setting [4]), the IC50 was found to be 0.539 µM.
